In the supplement of paper PMC10627819:

Legend:
Experiment in all cases: fitness (endpoint OD595 vs no drug) (fraction); higher = more growth
B. subtilis 168 = system: B. subtilis 168
Outline: (§1)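 With the first reading as background, OD595 was measured every 30 min for 14 h in 384-well plates kept at 37 °C and inoculated at OD595 0.01. TSB, LB Lennox or CY was the medium. Fitness is the optical density at the transition into stationary phase divided by the robust mean of no-drug control wells, with a cap of 1.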

S. aureus Newman = conditions: one replicate
Outline: as §1

S. pneumoniae D39V = system: S. pneumoniae D39V
Outline: as §1

[1] = first compound 0.5 µg/mL, partner 1 µg/mL
[2] = first compound 1 µg/mL, partner 1 µg/mL
[3] = first compound 2 µg/mL, partner 1 µg/mL
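Also: OD595 on entry to stationary phase over no-drug wells; at most 1.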

`O=C(O)[C@H]1/C(=C/CO)O[C@@H]2CC(=O)N21` [Clavulanic acid] + COc1ccc(C[C@H](N)C(=O)N[C@H]2[C@@H](O)[C@H](n3cnc4c(N(C)C)ncnc43)O[C@@H]2CO)cc1 [Puromycin] was tested. Which fitness (B. subtilis 168; first compound 1.5 µg/mL, partner 0.39 µg/mL) did it give?
Its fitness is 0.919.

What about the fitness (B. subtilis 168; first compound 1.5 µg/mL, partner 0.78 µg/mL) of the same compound?
Its fitness is 0.995.

And the fitness (B. subtilis 168; first compound 1.5 µg/mL, partner 1.56 µg/mL)?
The fitness was 0.888.

What about the fitness (B. subtilis 168; first compound 3 µg/mL, partner 0.39 µg/mL) of the same compound?
Its fitness is 0.872.

What about the fitness (B. subtilis 168; first compound 3 µg/mL, partner 0.78 µg/mL) of the same compound?
The fitness was 0.871.

And the fitness (B. subtilis 168; first compound 3 µg/mL, partner 1.56 µg/mL)?
Its fitness is 0.851.

What about the fitness (B. subtilis 168; first compound 6 µg/mL, partner 0.39 µg/mL) of the same compound?
The fitness was 0.787.

And the fitness (B. subtilis 168; first compound 6 µg/mL, partner 0.78 µg/mL)?
The fitness was 0.76.

What about the fitness (B. subtilis 168; first compound 6 µg/mL, partner 1.56 µg/mL) of the same compound?
The fitness was 0.775.

And the fitness (S. aureus Newman; first compound 0.03125 µg/mL, partner 0.39 µg/mL)?
Its fitness is 0.952.

What about the fitness (S. aureus Newman; first compound 0.03125 µg/mL, partner 0.78 µg/mL) of the same compound?
Its fitness is 0.91.

And the fitness (S. aureus Newman; first compound 0.03125 µg/mL, partner 1.56 µg/mL)?
Its fitness is ≥ 1.

What about the fitness (S. aureus Newman; first compound 0.0625 µg/mL, partner 0.39 µg/mL) of the same compound?
The fitness was ≥ 1.

And the fitness (S. aureus Newman; first compound 0.0625 µg/mL, partner 0.78 µg/mL)?
The fitness was ≥ 1.

And the fitness (S. aureus Newman; first compound 0.0625 µg/mL, partner 1.56 µg/mL)?
Its fitness is 0.99.

And the fitness (S. aureus Newman; first compound 0.125 µg/mL, partner 0.39 µg/mL)?
Its fitness is 0.89.

And the fitness (S. aureus Newman; first compound 0.125 µg/mL, partner 0.78 µg/mL)?
Its fitness is 0.901.

What about the fitness (S. aureus Newman; first compound 0.125 µg/mL, partner 1.56 µg/mL) of the same compound?
Its fitness is 0.894.

What about the fitness (S. pneumoniae D39V; [1]) of the same compound?
Its fitness is ≥ 1.

And the fitness (S. pneumoniae D39V; first compound 0.5 µg/mL, partner 2 µg/mL)?
The fitness was 0.931.

What about the fitness (S. pneumoniae D39V; [2]) of the same compound?
Its fitness is 0.937.

What about the fitness (S. pneumoniae D39V; first compound 1 µg/mL, partner 2 µg/mL) of the same compound?
The fitness was 0.891.

What about the fitness (S. pneumoniae D39V; first compound 1 µg/mL, partner 4 µg/mL) of the same compound?
The fitness was 0.528.

And the fitness (S. pneumoniae D39V; [3])?
Its fitness is 0.72.

What about the fitness (S. pneumoniae D39V; first compound 2 µg/mL, partner 2 µg/mL) of the same compound?
The fitness was 0.793.

Which fitness (B. subtilis 168; first compound 1.5 µg/mL, partner 0.625 µg/mL) does the source give for `O=C(O)[C@H]1/C(=C/CO)O[C@@H]2CC(=O)N21` [Clavulanic acid] + COc1cccc2c1C(=O)c1c(O)c3c(c(O)c1C2=O)C[C@@](O)(C(=O)CO)C[C@@H]3O[C@H]1C[C@H](N)[C@H](O)[C@H](C)O1 [Doxorubicin] here?
Its fitness is 0.911.

And the fitness (B. subtilis 168; first compound 1.5 µg/mL, partner 1.25 µg/mL)?
The fitness was 0.9.

What about the fitness (B. subtilis 168; first compound 1.5 µg/mL, partner 2.5 µg/mL) of the same compound?
The fitness was 0.696.

What about the fitness (B. subtilis 168; first compound 3 µg/mL, partner 0.625 µg/mL) of the same compound?
The fitness was 0.849.

And the fitness (B. subtilis 168; first compound 3 µg/mL, partner 1.25 µg/mL)?
The fitness was 0.88.

And the fitness (B. subtilis 168; first compound 3 µg/mL, partner 2.5 µg/mL)?
The fitness was 0.625.

And the fitness (B. subtilis 168; first compound 6 µg/mL, partner 0.625 µg/mL)?
Its fitness is 0.792.

What about the fitness (B. subtilis 168; first compound 6 µg/mL, partner 1.25 µg/mL) of the same compound?
The fitness was 0.736.

What about the fitness (S. aureus Newman; first compound 0.03125 µg/mL, partner 0.625 µg/mL) of the same compound?
The fitness was 0.979.

And the fitness (S. aureus Newman; first compound 0.03125 µg/mL, partner 1.25 µg/mL)?
Its fitness is 0.905.

What about the fitness (S. aureus Newman; first compound 0.03125 µg/mL, partner 2.5 µg/mL) of the same compound?
Its fitness is 0.739.

What about the fitness (S. aureus Newman; first compound 0.0625 µg/mL, partner 0.625 µg/mL) of the same compound?
Its fitness is 0.984.

What about the fitness (S. aureus Newman; first compound 0.0625 µg/mL, partner 1.25 µg/mL) of the same compound?
The fitness was 0.883.

What about the fitness (S. aureus Newman; first compound 0.0625 µg/mL, partner 2.5 µg/mL) of the same compound?
The fitness was 0.755.

What about the fitness (S. aureus Newman; first compound 0.125 µg/mL, partner 0.625 µg/mL) of the same compound?
Its fitness is 0.882.

And the fitness (S. aureus Newman; first compound 0.125 µg/mL, partner 1.25 µg/mL)?
The fitness was 0.803.

What about the fitness (S. aureus Newman; first compound 0.125 µg/mL, partner 2.5 µg/mL) of the same compound?
Its fitness is 0.753.

And the fitness (S. pneumoniae D39V; first compound 0.5 µg/mL, partner 0.25 µg/mL)?
Its fitness is 0.933.

What about the fitness (S. pneumoniae D39V; first compound 0.5 µg/mL, partner 0.5 µg/mL) of the same compound?
Its fitness is 0.954.

And the fitness (S. pneumoniae D39V; [1])?
Its fitness is 0.838.

What about the fitness (S. pneumoniae D39V; first compound 1 µg/mL, partner 0.25 µg/mL) of the same compound?
Its fitness is 0.885.

What about the fitness (S. pneumoniae D39V; first compound 1 µg/mL, partner 0.5 µg/mL) of the same compound?
Its fitness is 0.853.

What about the fitness (S. pneumoniae D39V; [2]) of the same compound?
The fitness was 0.813.

And the fitness (S. pneumoniae D39V; [3])?
The fitness was 0.706.

Which fitness (B. subtilis 168; first compound 1.5 µg/mL, partner 1.562 µg/mL) does the source give for `O=C(O)[C@H]1/C(=C/CO)O[C@@H]2CC(=O)N21` [Clavulanic acid] + C[C@@H]1O[C@@H]1P(=O)(O)O [Fosfomycin] here?
The fitness was 0.691.

What about the fitness (B. subtilis 168; first compound 1.5 µg/mL, partner 3.124 µg/mL) of the same compound?
Its fitness is 0.564.

What about the fitness (B. subtilis 168; first compound 1.5 µg/mL, partner 6.248 µg/mL) of the same compound?
The fitness was 0.478.

And the fitness (B. subtilis 168; first compound 3 µg/mL, partner 1.562 µg/mL)?
The fitness was 0.644.

And the fitness (B. subtilis 168; first compound 3 µg/mL, partner 3.124 µg/mL)?
Its fitness is 0.529.

And the fitness (B. subtilis 168; first compound 3 µg/mL, partner 6.248 µg/mL)?
Its fitness is 0.416.

And the fitness (B. subtilis 168; first compound 6 µg/mL, partner 1.562 µg/mL)?
Its fitness is 0.559.

What about the fitness (B. subtilis 168; first compound 6 µg/mL, partner 3.124 µg/mL) of the same compound?
Its fitness is 0.453.

What about the fitness (B. subtilis 168; first compound 6 µg/mL, partner 6.248 µg/mL) of the same compound?
The fitness was 0.301.

What about the fitness (S. aureus Newman; first compound 0.03125 µg/mL, partner 0.781 µg/mL) of the same compound?
Its fitness is 0.96.

What about the fitness (S. aureus Newman; first compound 0.03125 µg/mL, partner 1.562 µg/mL) of the same compound?
The fitness was 0.679.

And the fitness (S. aureus Newman; first compound 0.03125 µg/mL, partner 3.124 µg/mL)?
Its fitness is 0.396.

What about the fitness (S. aureus Newman; first compound 0.0625 µg/mL, partner 0.781 µg/mL) of the same compound?
The fitness was 0.885.

What about the fitness (S. aureus Newman; first compound 0.0625 µg/mL, partner 1.562 µg/mL) of the same compound?
The fitness was 0.626.

And the fitness (S. aureus Newman; first compound 0.0625 µg/mL, partner 3.124 µg/mL)?
The fitness was 0.382.

And the fitness (S. aureus Newman; first compound 0.125 µg/mL, partner 0.781 µg/mL)?
Its fitness is 0.841.

What about the fitness (S. aureus Newman; first compound 0.125 µg/mL, partner 1.562 µg/mL) of the same compound?
The fitness was 0.598.

What about the fitness (S. aureus Newman; first compound 0.125 µg/mL, partner 3.124 µg/mL) of the same compound?
The fitness was 0.349.

And the fitness (S. pneumoniae D39V; first compound 0.5 µg/mL, partner 1.25 µg/mL)?
Its fitness is 0.953.

What about the fitness (S. pneumoniae D39V; first compound 0.5 µg/mL, partner 2.5 µg/mL) of the same compound?
Its fitness is 0.933.

And the fitness (S. pneumoniae D39V; first compound 1 µg/mL, partner 1.25 µg/mL)?
The fitness was 0.905.

What about the fitness (S. pneumoniae D39V; first compound 1 µg/mL, partner 2.5 µg/mL) of the same compound?
The fitness was 0.872.

What about the fitness (S. pneumoniae D39V; first compound 2 µg/mL, partner 1.25 µg/mL) of the same compound?
Its fitness is 0.821.

What about the fitness (S. pneumoniae D39V; first compound 2 µg/mL, partner 2.5 µg/mL) of the same compound?
Its fitness is 0.802.
